The experiment deals with KRAS G12C protein (Homo sapiens, UniProt P01116, G12C). Kind of experiment: Nucleotide exchange assay (Method III, KRAS G12C/Raf-RBD TR-FRET). It counts as biochemical. The settings on record: SOS1-mediated exchange of GDP for GTP, 18 hr compound incubation. On the procedure: Method III. Inhibition of SOS1-mediated exchange of GDP for GTP on the KRAS G12C protein was measured in a biochemical assay that monitors association of KRAS G12C protein with the Ras-binding domain of Raf (Raf-RBD), where the association is coupled to exchange of GDP to GTP on the KRAS G12C protein. The assay was performed at WuXi AppTec (Shanghai, China). Compounds were serially diluted in 3-fold dilutions to 11 concentrations and spotted into the wells of an assay plate in a total volume of 150 nL DMSO per well. A 2× enzyme mix was prepared by diluting GDP-bound, His-tagged KRAS G12C to 25 nM in assay buffer. 10 μL/well of 2× enzyme mix was added to all wells, and the plate was sealed and incubated overnight (18 hr) at 23° C. 4×SOS1/GDP and 4×SOS1/GTP were prepared in assay buffer. 5 μL/well of 4×SOS1/GDP mix was added to negative control wells, 5 μL/well of 4×SOS1/GTP mix was added to the remaining wells, and the plate was further incubated at 23° C. for 1 hr. Finally, FLAG-tagged Raf-RBD is added to the reaction mixture along with a pair of FRET donor- and acceptor-conjugated antibodies specific for the FLAG-tagged Raf-RBD and His-tagged KRAS G12C proteins. A 4×Raf-RBD/Tb-anti-FLAG/D2-anti-His mix was prepared in assay buffer, and 5 μL/well of the mix was added to all wells, followed by incubation at room temperature for 2 hr. The TR-FRET signals, which increase with association of KRAS G12C and Raf-RBD, were measured on a Perkin Elmer Envision 2104 plate reader, and data were analyzed by non-linear regression to obtain IC50 values for inhibition by compounds. Table 2 includes results of the assay of Method III. ‘+++’ indicates IC50 values≤300 nM, ‘++’ indicates IC50 values between 300 nM-3 μM, and ‘+’ indicates IC50 values≥3 μM.
Sequence of KRAS G12C protein (P01116 1-188 isoform P01116-2 G12C): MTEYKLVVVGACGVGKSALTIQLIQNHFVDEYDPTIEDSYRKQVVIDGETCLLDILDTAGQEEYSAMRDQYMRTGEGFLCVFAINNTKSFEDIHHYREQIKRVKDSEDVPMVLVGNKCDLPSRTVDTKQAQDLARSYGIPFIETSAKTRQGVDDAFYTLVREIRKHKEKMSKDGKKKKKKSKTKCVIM

With `C=CC(=O)N1CCN(c2nc(OC[C@@H]3CCCN3C)nc3c2COC(c2cccc4cccc(Cl)c24)C3)C[C@@H]1CC#N` (single isomer, unassigned) [38 (Isomer A)], the IC50 – broadly, the concentration needed to halve the response being measured – was in the range of 0.3 to 3 µM.
The value for `C=C(F)C(=O)N1CCN(c2nc(OC[C@@H]3CCCN3C)nc3c2COC(c2cccc4cccc(Cl)c24)C3)C[C@H]1C` (single isomer, unassigned) [42 (Isomer A)] was no less than 3 µM.
Regarding `C=C(F)C(=O)N1CCN(c2nc(OC[C@@H]3CCCN3C)nc3c2COC(c2cccc4cccc(Cl)c24)C3)C[C@H]1C` (single isomer, unassigned) [42 (Isomer B)], the IC50 was no less than 3 µM.
As to `C=C(F)C(=O)N1CCN(c2nc(OC[C@@H]3CCCN3C)nc3c2COC(c2cccc4cccc(Cl)c24)C3)[C@@H](C)C1` (single isomer, unassigned) [44 (Isomer A)], the IC50 is no less than 3 µM.
As for `C=C(F)C(=O)N1CCN(c2nc(OC[C@@H]3CCCN3C)nc3c2COC(c2cccc4cccc(Cl)c24)C3)[C@@H](C)C1` (single isomer, unassigned) [44 (Isomer B)], the IC50 fell in the range of 0.3 to 3 µM.
For `C=C(F)C(=O)N1CCN(c2nc(OC[C@@H]3CCCN3C)nc3c2COC(c2c(C)ccc4[nH]ncc24)C3)C[C@@H]1CC#N` (single isomer, unassigned) [52 (Isomer A)] the value was 0.3 to 3 µM; for `C=C(F)C(=O)N1CCN(c2nc(OC[C@@H]3CCCN3C)nc3c2OCC(c2cccc4cccc(Cl)c24)O3)C[C@@H]1CC#N` (single isomer, unassigned) [64 (Isomer A)], 0.3 to 3 µM.
On to `C=C(F)C(=O)N1CCN(c2nc(OC[C@@H]3CCCN3C)nc3c2OCC(c2cccc4cccc(Cl)c24)O3)C[C@@H]1CC#N` (single isomer, unassigned) [64 (Isomer B)], for which the IC50 lay in the range of 0.3 to 3 µM.
Compound `C=CC(=O)N1CCN(c2nc(OC[C@@H]3CCCN3C)nc3c2OCC(c2cccc4cccc(Cl)c24)O3)CC1` (single isomer, unassigned) [135 (Isomer A)] showed an IC50 of no less than 3 µM.
The value for `C=CC(=O)N1CCN(c2nc(OC[C@@H]3CCCN3C)nc3c2OCC(c2cccc4cccc(Cl)c24)O3)CC1` (single isomer, unassigned) [135 (Isomer B)] was no less than 3 µM; that for `C=C(F)C(=O)N1CCN(c2nc(OC[C@@H]3CCCN3C)nc3c2OCC(c2cccc4cccc(Cl)c24)O3)[C@@H](C)C1` (single isomer, unassigned) [136 (Isomer A)] was no less than 3 µM; that for `C=C(F)C(=O)N1CCN(c2nc(OC[C@@H]3CCCN3C)nc3c2OCC(c2cccc4cccc(Cl)c24)O3)[C@@H](C)C1` (single isomer, unassigned) [136 (Isomer B)] was no less than 3 µM.
`C=C(F)C(=O)N1CCN(c2nc(N3CC(N(CC)CC)C3)nc3c2COC(c2cccc4cccc(Cl)c24)C3)C[C@@H]1CC#N` (single isomer, unassigned) [229 (Isomer B)]: the IC50 is no less than 3 µM.
In turn, `C=C(F)C(=O)N1CCN(c2nc(N3CCC(N(CC)CC)CC3)nc3c2COC(c2cccc4cccc(Cl)c24)C3)C[C@@H]1CC#N` (single isomer, unassigned) [230 (Isomer A)] registered an IC50 of no less than 3 µM.
`C=C(F)C(=O)N1CCN(c2nc(N3CCC(N(CC)CC)CC3)nc3c2COC(c2cccc4cccc(Cl)c24)C3)C[C@@H]1CC#N` (single isomer, unassigned) [230 (Isomer B)] yielded an IC50 of 0.3 to 3 µM.
`C=C(F)C(=O)N1CCN(c2nc(NC3CCN(S(C)(=O)=O)CC3)nc3c2COC(c2cccc4cccc(Cl)c24)C3)C[C@@H]1CC#N` (single isomer, unassigned) [231 (Isomer A)]: the IC50 was no less than 3 µM.
Compound `C=C(F)C(=O)N1CCN(c2nc(NC3CCN(S(C)(=O)=O)CC3)nc3c2COC(c2cccc4cccc(Cl)c24)C3)C[C@@H]1CC#N` (single isomer, unassigned) [231 (Isomer B)] gave an IC50 of no less than 3 µM.
`C=C(F)C(=O)N1CCN(c2nc(NCCC(=O)N(C)C)nc3c2COC(c2cccc4cccc(Cl)c24)C3)C[C@@H]1CC#N` (single isomer, unassigned) [232 (Isomer A)] yielded an IC50 of 0.3 to 3 µM.
For the compound `C=C(F)C(=O)N1CCN(c2nc(NCCC(=O)N(C)C)nc3c2COC(c2cccc4cccc(Cl)c24)C3)C[C@@H]1CC#N` (single isomer, unassigned) [232 (Isomer B)], the IC50 was no less than 3 µM.
In turn, `C=C(F)C(=O)N1CCN(c2nc(Nc3cnn(C)c3)nc3c2COC(c2cccc4cccc(Cl)c24)C3)C[C@@H]1CC#N` (single isomer, unassigned) [233 (Isomer A)] returned an IC50 of no less than 3 µM.
Take `C=C(F)C(=O)N1CCN(c2nc(Nc3cnn(C)c3)nc3c2COC(c2cccc4cccc(Cl)c24)C3)C[C@@H]1CC#N` (single isomer, unassigned) [233 (Isomer B)]: the IC50 is no less than 3 µM.
For the compound `C=C(F)C(=O)N1CCN(c2nc(OC3CCN(C)CC3)nc3c2COC(c2cccc4cccc(Cl)c24)C3)C[C@@H]1CC#N` (single isomer, unassigned) [234 (Isomer A)], the IC50 was no less than 3 µM.
`C=C(F)C(=O)N1CCN(c2nc(OC3CCN(C)CC3)nc3c2COC(c2cccc4cccc(Cl)c24)C3)C[C@@H]1CC#N` (single isomer, unassigned) [234 (Isomer B)] had an IC50 of 0.3 to 3 µM.
`C=C(F)C(=O)N1C[C@H](C)N(c2nc(OC[C@@H]3CCCN3C)nc3c2COC(c2cccc4cccc(Cl)c24)C3)C[C@H]1C` (single isomer, unassigned) [235 (Isomer A)] had an IC50 of no less than 3 µM.
`C=C(F)C(=O)N1C[C@H](C)N(c2nc(OC[C@@H]3CCCN3C)nc3c2COC(c2cccc4cccc(Cl)c24)C3)C[C@H]1C` (single isomer, unassigned) [235 (Isomer B)]: the IC50 is no less than 3 µM.
The value for `C=C(F)C(=O)N1[C@H](C)CN(c2nc(OC[C@@H]3CCCN3C)nc3c2COC(c2cccc4cccc(Cl)c24)C3)C[C@@H]1C` (single isomer, unassigned) [237 (Isomer A)] was no less than 3 µM; that for `C=C(F)C(=O)N1[C@H](C)CN(c2nc(OC[C@@H]3CCCN3C)nc3c2COC(c2cccc4cccc(Cl)c24)C3)C[C@@H]1C` (single isomer, unassigned) [237 (Isomer B)] was no less than 3 µM; that for `C=C(F)C(=O)N1CCN(c2nc(OC[C@@H]3CCCN3C)nc3c2COC(c2cccc4cccc(Cl)c24)C3)CC1(C)C` (single isomer, unassigned) [238 (Isomer A)] was no less than 3 µM.
In turn, `C=C(F)C(=O)N1CCN(c2nc(OC[C@@H]3CCCN3C)nc3c2COC(c2cccc4cccc(Cl)c24)C3)CC1(C)C` (single isomer, unassigned) [238 (Isomer B)] gave an IC50 of no less than 3 µM.
In turn, `C=C(Cl)C(=O)N1CCN(c2nc(OC[C@@H]3CCCN3C)nc3c2COC(c2cccc4cccc(Cl)c24)C3)C[C@@H]1CC#N` (single isomer, unassigned) [239 (Isomer A)] returned an IC50 of no less than 3 µM.
In the case of `C=C(C)C(=O)N1CCN(c2nc(OC[C@@H]3CCCN3C)nc3c2COC(c2cccc4cccc(Cl)c24)C3)C[C@@H]1CC#N` (single isomer, unassigned) [240 (Isomer A)], the IC50 was no less than 3 µM.
For `C=C(C)C(=O)N1CCN(c2nc(OC[C@@H]3CCCN3C)nc3c2COC(c2cccc4cccc(Cl)c24)C3)C[C@@H]1CC#N` (single isomer, unassigned) [240 (Isomer B)] the value was no less than 3 µM.
For `C/C=C/C(=O)N1CCN(c2nc(OC[C@@H]3CCCN3C)nc3c2COC(c2cccc4cccc(Cl)c24)C3)C[C@@H]1CC#N` (single isomer, unassigned) [241 (Isomer B)] the value was 0.3 to 3 µM.
